The assay has as its system CD2F1 mice, L1210 leukemia ip, survival T/C. Briefly: NCI In Vivo Anticancer Drug Screen. Data for tumor model L1210 Leukemia (intraperitoneal) in CD2F1 (CDF1) mice. Conditions: endpoint: mean survival time, higher = longer survival. In short, it runs like this: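 Each value reflects a quotient of treated over vehicle control outcomes in mice with a transplanted tumor.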

Where [1] appears, read: dose: 100.0 mg/kg/injection, schedule: Q01DX001 (ip), vehicle: saline.

Toxic doses and inconclusive results are not listed.

`N=c1ccn2c(n1)OC1C(OP(=O)(O)O)C(CO)OC12` (centres undefined): the T/C was 101 % of control (dose: 2.9 mg/kg/injection, schedule: Q01DX009 (ip), vehicle: saline); 117 % of control (dose: 4.4 mg/kg/injection, schedule: Q03HX024 (oral), vehicle: water); 119 % of control (dose: 5.8 mg/kg/injection, schedule: Q01DX009 (ip), vehicle: saline); 122 % of control (dose: 8.0 mg/kg/injection, schedule: Q03HX008 (ip), vehicle: saline); 177 % of control (dose: 8.0 mg/kg/injection, schedule: Q03HX024 (ip), vehicle: saline); 163 % of control (dose: 8.7 mg/kg/injection, schedule: Q03HX024 (ip), vehicle: saline). The T/C reads like this: (dose: 11.6 mg/kg/injection, schedule: Q01DX009 (oral), vehicle: water) 120 % of control; (dose: 16.0 mg/kg/injection, schedule: Q03HX008 (oral), vehicle: saline) 120 % of control; (dose: 16.0 mg/kg/injection, schedule: Q03HX024 (ip), vehicle: saline) 225 % of control; (dose: 17.4 mg/kg/injection, schedule: Q03HX024 (ip), vehicle: saline) 217 % of control; (dose: 17.4 mg/kg/injection, schedule: Q03HX024 (oral), vehicle: water) 163 % of control; (dose: 23.2 mg/kg/injection, schedule: Q01DX009 (ip), vehicle: saline) 157 % of control. Also, the T/C by setting is: (dose: 23.2 mg/kg/injection, schedule: Q01DX009 (oral), vehicle: water) 122 % of control; (dose: 32.0 mg/kg/injection, schedule: Q01DX009 (ip), vehicle: saline) 159 % of control; (dose: 32.0 mg/kg/injection, schedule: Q01DX009 (oral), vehicle: saline) 111 % of control; (dose: 32.0 mg/kg/injection, schedule: Q03HX024 (ip), vehicle: saline) 283 % of control; (dose: 32.0 mg/kg/injection, schedule: Q03HX024 (oral), vehicle: saline) 177 % of control; (dose: 34.8 mg/kg/injection, schedule: Q03HX024 (ip), vehicle: saline) 229 % of control. Besides, the T/C is, setting by setting: (dose: 34.8 mg/kg/injection, schedule: Q03HX024 (oral), vehicle: water) 193 % of control; (dose: 46.4 mg/kg/injection, schedule: Q01DX009 (ip), vehicle: saline) 170 % of control; (dose: 64.0 mg/kg/injection, schedule: Q01DX009 (ip), vehicle: saline) 169 % of control; (dose: 64.0 mg/kg/injection, schedule: Q03HX024 (ip), vehicle: saline) 418 % of control; (dose: 64.0 mg/kg/injection, schedule: Q03HX024 (oral), vehicle: saline) 231 % of control; (dose: 69.6 mg/kg/injection, schedule: Q03HX024 (ip), vehicle: saline) 228 % of control. Also, the T/C (dose: 69.6 mg/kg/injection, schedule: Q03HX024 (oral), vehicle: water) was 291 % of control; the T/C (dose: 92.8 mg/kg/injection, schedule: Q01DX009 (ip), vehicle: saline) was 195 % of control; the T/C (dose: 92.8 mg/kg/injection, schedule: Q01DX009 (oral), vehicle: water) was 153 % of control; the T/C (dose: 128.0 mg/kg/injection, schedule: Q01DX001 (ip), vehicle: saline) is 112 % of control; the T/C (dose: 128.0 mg/kg/injection, schedule: Q01DX001 (oral), vehicle: saline) is 104 % of control; the T/C (dose: 128.0 mg/kg/injection, schedule: Q01DX009 (ip), vehicle: saline) was 200 % of control. Further, the T/C is, setting by setting: (dose: 128.0 mg/kg/injection, schedule: Q01DX009 (oral), vehicle: saline) 166 % of control; (dose: 128.0 mg/kg/injection, schedule: Q03HX008 (oral), vehicle: saline) 157 % of control; (dose: 128.0 mg/kg/injection, schedule: Q03HX024 (oral), vehicle: saline) 231 % of control; (dose: 128.0 mg/kg/injection, schedule: Q04DX003 (ip), vehicle: saline) 154 % of control; (dose: 128.0 mg/kg/injection, schedule: Q04DX003 (oral), vehicle: saline) 111 % of control; (dose: 139.2 mg/kg/injection, schedule: Q03HX024 (ip), vehicle: saline) 221 % of control. Besides, the T/C (dose: 139.2 mg/kg/injection, schedule: Q03HX024 (oral), vehicle: water) is 273 % of control; the T/C (dose: 185.6 mg/kg/injection, schedule: Q01DX009 (oral), vehicle: water) was 197 % of control; the T/C (dose: 256.0 mg/kg/injection, schedule: Q01DX001 (ip), vehicle: saline) was 122 % of control; the T/C (dose: 256.0 mg/kg/injection, schedule: Q01DX001 (oral), vehicle: saline) is 107 % of control; the T/C (dose: 256.0 mg/kg/injection, schedule: Q01DX009 (oral), vehicle: saline) was 201 % of control; the T/C (dose: 256.0 mg/kg/injection, schedule: Q04DX003 (ip), vehicle: saline) is 180 % of control. Further, the T/C is, setting by setting: (dose: 278.4 mg/kg/injection, schedule: Q03HX024 (ip), vehicle: saline) 86 % of control; (dose: 371.2 mg/kg/injection, schedule: Q01DX009 (oral), vehicle: water) 174 % of control; (dose: 512.0 mg/kg/injection, schedule: Q04DX003 (ip), vehicle: saline) 219 % of control; (dose: 512.0 mg/kg/injection, schedule: Q04DX003 (oral), vehicle: saline) 173 % of control; (dose: 1024.0 mg/kg/injection, schedule: Q01DX001 (ip), vehicle: saline) 154 % of control; (dose: 1024.0 mg/kg/injection, schedule: Q04DX003 (ip), vehicle: saline) 359 % of control. The T/C (dose: 1024.0 mg/kg/injection, schedule: Q04DX003 (oral), vehicle: saline) is 220 % of control.

`N/C(=C\C(=O)c1ccccc1)c1ccccc1`: the T/C was 94 % of control (dose: 100.0 mg/kg/injection, schedule: Q04DX003 (ip), vehicle: saline with Tween-80); 107 % of control (dose: 200.0 mg/kg/injection, schedule: Q04DX003 (ip), vehicle: saline with Tween-80); 100 % of control (dose: 400.0 mg/kg/injection, schedule: Q04DX003 (ip), vehicle: saline with Tween-80).

With `N#CCC(=O)N/N=C/c1ccc2c(c1)CCC2`, the T/C was 97 % of control (dose: 12.5 mg/kg/injection, schedule: Q01DX009 (ip), vehicle: saline with Tween-80); 100 % of control (dose: 12.5 mg/kg/injection, schedule: Q04DX003 (ip), vehicle: saline with Tween-80); 90 % of control (dose: 25.0 mg/kg/injection, schedule: Q01DX009 (ip), vehicle: saline with Tween-80); 97 % of control (dose: 25.0 mg/kg/injection, schedule: Q04DX003 (ip), vehicle: saline with Tween-80); 90 % of control (dose: 50.0 mg/kg/injection, schedule: Q01DX009 (ip), vehicle: saline with Tween-80); 88 % of control (dose: 50.0 mg/kg/injection, schedule: Q04DX003 (ip), vehicle: saline with Tween-80).

Consider `CCCCCCCCCc1nc(N)nc(NCCCC)n1`, for which the T/C runs as follows: (dose: 25.0 mg/kg/injection, schedule: Q01DX009 (ip), vehicle: Klucel (hydroxypropylcellulose) (HPC)) 101 % of control; (dose: 50.0 mg/kg/injection, schedule: Q01DX009 (ip), vehicle: Klucel (hydroxypropylcellulose) (HPC)) 112 % of control; (dose: 100.0 mg/kg/injection, schedule: Q01DX009 (ip), vehicle: Klucel (hydroxypropylcellulose) (HPC)) 108 % of control.

For `CC(=O)c1cc(O)ccc1O`, the T/C was 101 % of control under setting [1]; 98 % of control (dose: 200.0 mg/kg/injection, schedule: Q01DX001 (ip), vehicle: saline); 98 % of control (dose: 400.0 mg/kg/injection, schedule: Q01DX001 (ip), vehicle: saline).

Turning to `NNC(=O)Nc1nn[nH]n1`, the T/C is 97 % of control (dose: 100.0 mg/kg/injection, schedule: Q04DX002 (ip), vehicle: saline with Tween-80); 97 % of control (dose: 200.0 mg/kg/injection, schedule: Q04DX002 (ip), vehicle: saline with Tween-80); 94 % of control (dose: 400.0 mg/kg/injection, schedule: Q04DX002 (ip), vehicle: saline with Tween-80).

For `CCOC(=O)Nc1cc(NCCc2ccccc2)c(N)c(N)n1`, the T/C by setting is: (dose: 50.0 mg/kg/injection, schedule: Q01DX001 (ip), vehicle: saline) 101 % of control; under setting [1], 92 % of control.

As for `C[N+](C)(Cc1ccc(F)cc1)C1c2ccccc2-c2ccccc21`, the T/C is, setting by setting: (dose: 1.56 mg/kg/injection, schedule: Q04DX003 (ip), vehicle: saline) 97 % of control; (dose: 3.13 mg/kg/injection, schedule: Q04DX003 (ip), vehicle: saline) 97 % of control; (dose: 6.25 mg/kg/injection, schedule: Q04DX003 (ip), vehicle: saline) 98 % of control.

`Nc1c(C(=O)NOCc2ccccc2)ncn1C1CCCC1`: the T/C (dose: 50.0 mg/kg/injection, schedule: Q01DX001 (ip), vehicle: other) is 104 % of control and the T/C (dose: 100.0 mg/kg/injection, schedule: Q01DX001 (ip), vehicle: other) is 102 % of control.

Source of the values: PubChem BioAssay AID256 (DTP/NCI, 2004).
